Where a name gives a salt, the structure may show the parent alone.
How the values were obtained:
[1] = test system: guinea pig tracheal chain preparation; test: effect on spontaneous tone of guinea pig tracheal chain preparation (β-stimulant direct relaxant effect on airway smooth muscle); assay type: cell-based; settings: Cavia porcellus, in vitro, read-out: ED50, dose which produces 50% of the maximum possible relaxation
Procedure: (§1) The compounds of this invention are β-adrenergic stimulants which have direct bronchodilator activity with minimal cardiac stimulation. This selective β-stimulant activity is determined by two standard in vitro pharmacological test systems: (1) effect on spontaneous tone of guinea pig tracheal chain preparation as a measure of β-stimulant (direct relaxant) effect on airway smooth muscle, and (2) effect on spontaneously beating right atria of the guinea pig as a measure of β-stimulant effect on cardiac muscle. Compounds that show selective bronchodilating properties, as the compounds of this invention do, are active in test (1) at a dose lower than is required in test (2) thereby resulting in a positive separation ratio. Results of test (1) are reported as the dose which produces 50% of the maximum possible relaxation (ED50). Test (2) results are reported as the dose which produces 25% of the maximum possible increase in atrial contraction rate (ED25).

[2] = test system: spontaneously beating right atria of the guinea pig; test: effect on spontaneously beating right atria of the guinea pig (β-stimulant effect on cardiac muscle); assay type: cell-based; settings: Cavia porcellus, in vitro, read-out: ED25, dose which produces 25% of the maximum possible increase in atrial contraction rate
Procedure: as §1

Which results are given for Nc1cc(C(O)C2CCCCN2)ccc1O (stereo not drawn) [α-(3-amino-4-hydroxyphenyl)-2-piperidylcarbinol hydrobromide]?
EC50 [1]: 0.12 µg/mL; EC25 [2]: 4.4 µg/mL

With CS(=O)(=O)Cc1cc(C(O)C2CCCCN2)ccc1O (stereo not drawn) [α-(4-hydroxy-3-methanesulfonylmethylphenyl)-2-piperidylcarbinol hydrobromide] as the compound, how does the EC50 [1] read?
Its EC50 is 0.14 µg/mL.

And the EC25 [2]?
The EC25 was 1.1 µg/mL.

What does the source list for NC(=O)Nc1cc(C(O)C2CCCCN2)ccc1O (stereo not drawn) [α-(4-hydroxy-3-ureidophenyl)-2-piperidylcarbinol hydrochloride]?
EC50 [1]: 0.83 µg/mL; EC25 [2]: 9.4 µg/mL

Reference: patent US3985887A, “3-Substituted-4-hydroxyphenyl-2-piperidylcarbinols as β-adrenergic stimulants” (SmithKline Corporation, priority 1975, dated 1976)
